The target of this assay is T1, Adenosine kinase (Toxoplasma gondii, UniProt Q9TVW2).
T1 sequence (Q9TVW2 whole entry): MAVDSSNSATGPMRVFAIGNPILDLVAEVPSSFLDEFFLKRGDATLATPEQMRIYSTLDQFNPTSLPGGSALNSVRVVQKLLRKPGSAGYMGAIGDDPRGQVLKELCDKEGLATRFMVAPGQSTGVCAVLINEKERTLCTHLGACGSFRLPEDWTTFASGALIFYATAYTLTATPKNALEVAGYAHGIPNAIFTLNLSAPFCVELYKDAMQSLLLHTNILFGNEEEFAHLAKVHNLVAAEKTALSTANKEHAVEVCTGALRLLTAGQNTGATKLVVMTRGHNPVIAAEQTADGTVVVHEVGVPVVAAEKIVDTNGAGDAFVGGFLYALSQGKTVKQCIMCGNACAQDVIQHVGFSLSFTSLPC
As to the kind of experiment: Inhibition of Toxoplasma gondii adenosine kinase. The note with it: for pIC50: read-out: IC50; for IC50: read-out: pIC50 (converted).

SMILES strings stand for the structures. pIC50, pKi: −log10 of the molar value.

As for `OC[C@H]1O[C@@H](n2cnc3c(NCc4cccc(F)c4)ncnc32)[C@H](O)[C@@H]1O`, the pIC50 was 4.63.
On to `OC[C@H]1O[C@@H](n2cnc3c(NCc4ccc(F)cc4)ncnc32)[C@H](O)[C@@H]1O`, for which the pIC50 was 4.69.
Turning to `OC[C@H]1O[C@@H](n2cnc3c(NCc4ccc(Cl)cc4)ncnc32)[C@H](O)[C@@H]1O`, the pIC50 was 4.59.
Turning to `COc1ccccc1CNc1ncnc2c1ncn2[C@@H]1O[C@H](CO)[C@@H](O)[C@H]1O`, the pIC50 was 5.06.
As to `OC[C@H]1O[C@@H](n2cnc3c(NCc4ccc(C(F)(F)F)cc4)ncnc32)[C@H](O)[C@@H]1O`, the pIC50 is 4.64.
As to `COc1ccc(CNc2ncnc3c2ncn3[C@@H]2O[C@H](CO)[C@@H](O)[C@H]2O)cc1`, the pIC50 is 5.12 and the IC50 was 7.19 µM.
Regarding `OC[C@H]1O[C@@H](n2cnc3c(NCc4ccc(Cl)c(Cl)c4)ncnc32)[C@H](O)[C@@H]1O`, the pIC50 was 4.84.
On to `COc1ccc(CNc2ncnc3c2ncn3[C@@H]2O[C@H](CO)[C@@H](O)[C@H]2O)c(OC)c1`, for which the pIC50 is 5.06.
Still for that read-out and setting: next, `OC[C@H]1O[C@@H](n2cnc3c(NCc4ccc(F)cc4F)ncnc32)[C@H](O)[C@@H]1O`: 5.09.
With `N#Cc1ccc(CNc2ncnc3c2ncn3[C@@H]2O[C@H](CO)[C@@H](O)[C@H]2O)c(Cl)c1`, the pIC50 is 4.68 and the IC50 is 10.4 µM.
`COc1ccc(CNc2ncnc3c2ncn3[C@@H]2O[C@H](CO)[C@@H](O)[C@H]2O)c(F)c1`: the pIC50 was 5.02.
Take `CC(C)(C)c1ccc(CSc2ncnc3c2ncn3[C@@H]2O[C@H](CO)[C@@H](O)[C@H]2O)cc1`: the pKi was 3.95 and the pIC50 is 4.63.
Turning to `OC[C@H]1O[C@@H](n2cnc3c(SCc4ccccc4Cl)ncnc32)[C@H](O)[C@@H]1O`, the pKi is 5.85 and the pIC50 was 5.17.
As for `Cc1ccc(CSc2ncnc3c2ncn3[C@@H]2O[C@H](CO)[C@@H](O)[C@H]2O)cc1`, the pKi is 5.48 and the pIC50 is 5.11.
For `OC[C@H]1O[C@@H](n2cnc3c(NCc4ccccc4Cl)ncnc32)[C@H](O)[C@@H]1O`, the pIC50 is 4.97.
For the compound `Cc1cccc(CNc2ncnc3c2ncn3[C@@H]2O[C@H](CO)[C@@H](O)[C@H]2O)c1`, the pIC50 is 5.07.
Consider `Cc1ccc(CNc2ncnc3c2ncn3[C@@H]2O[C@H](CO)[C@@H](O)[C@H]2O)cc1`, for which the pIC50 is 4.98.
Turning to `OC[C@H]1O[C@@H](n2cnc3c(NCc4ccc(Cl)cc4Cl)ncnc32)[C@H](O)[C@@H]1O`, the pIC50 is 5.03.
On to `OC[C@H]1O[C@@H](n2cnc3c(SCc4ccc(F)cc4)ncnc32)[C@H](O)[C@@H]1O`, for which the pKi was 5.92 and the pIC50 was 4.99.
With `OC[C@H]1O[C@@H](n2cnc3c(SCc4ccc(Br)cc4)ncnc32)[C@H](O)[C@@H]1O`, the pKi was 5.12 and the pIC50 was 4.84.
As to `OC[C@H]1O[C@@H](n2cnc3c(SCc4ccc(OC(F)(F)F)cc4)ncnc32)[C@H](O)[C@@H]1O`, the pKi was 3.85 and the pIC50 is 4.61.
`OC[C@H]1O[C@@H](n2cnc3c(NCc4ccccc4F)ncnc32)[C@H](O)[C@@H]1O`: the pIC50 is 4.42.
For `Cc1ccccc1CSc1ncnc2c1ncn2[C@@H]1O[C@H](CO)[C@@H](O)[C@H]1O`, the pKi is 5.82 and the pIC50 is 5.11.
In the case of `OC[C@H]1O[C@@H](n2cnc3c(SCc4ccc(Cl)c(Cl)c4)ncnc32)[C@H](O)[C@@H]1O`, the pKi was 5.60, the pIC50 was 4.98 and the IC50 is 21.1 µM.
For `Cc1cccc(CSc2ncnc3c2ncn3[C@@H]2O[C@H](CO)[C@@H](O)[C@H]2O)c1`, the pKi is 5.89 and the pIC50 is 5.09.
`OC[C@H]1O[C@@H](n2cnc3c(SCc4cccc(C(F)(F)F)c4)ncnc32)[C@H](O)[C@@H]1O`: the pKi was 5.54 and the pIC50 is 5.06.
Regarding `OC[C@H]1O[C@@H](n2cnc3c(SCc4c(F)cccc4Cl)ncnc32)[C@H](O)[C@@H]1O`, the pKi is 4.42 and the pIC50 was 5.06.
`OC[C@H]1O[C@@H](n2cnc3c(SCc4ccccc4F)ncnc32)[C@H](O)[C@@H]1O`: the pIC50 is 5.09.
With `Cc1cc(C)c(CSc2ncnc3c2ncn3[C@@H]2O[C@H](CO)[C@@H](O)[C@H]2O)c(C)c1`, the pKi was 3.82 and the pIC50 is 4.51.
In the same order, the values of `OC[C@H]1O[C@@H](n2cnc3c(SCc4ccc(Cl)cc4)ncnc32)[C@H](O)[C@@H]1O` are 5.68 and 5.09.
Turning to `COc1ccc(CSc2ncnc3c2ncn3[C@@H]2O[C@H](CO)[C@@H](O)[C@H]2O)cc1`, the pKi was 5.59 and the pIC50 is 5.46.
Consider `OC[C@H]1O[C@@H](n2cnc3c(SCc4ccc(Cl)cc4Cl)ncnc32)[C@H](O)[C@@H]1O`, for which the pKi is 6.15 and the pIC50 is 5.14.
On to `O=[N+]([O-])c1cccc(CSc2ncnc3c2ncn3[C@@H]2O[C@H](CO)[C@@H](O)[C@H]2O)c1`, for which the pKi is 5.52 and the pIC50 was 5.21.
In the same order, the values of `N#Cc1ccc(CSc2ncnc3c2ncn3[C@@H]2O[C@H](CO)[C@@H](O)[C@H]2O)cc1` are 6.05 and 5.37.
For the compound `OC[C@H]1O[C@@H](n2cnc3c(SCc4ccccc4)ncnc32)[C@H](O)[C@@H]1O` [6-BENZYLTHIOINOSINE], the pKi is 5.62 and the pIC50 is 5.03.
As to `OC[C@H]1O[C@@H](n2cnc3c(NCc4ccccc4)ncnc32)[C@H](O)[C@@H]1O` [N6-BENZYLADENOSINE], the IC50 is 794 µM.
Take `O=[N+]([O-])c1ccc(CSc2ncnc3c2ncn3[C@@H]2O[C@H](CO)[C@@H](O)[C@H]2O)cc1` [NITROBENZYLMERCAPTOPURINE RIBONUCLEOSIDE]: the negative logarithm of the Ki (pKi) is 5.96 and the pIC50 was 4.92.
Take `O=[N+]([O-])c1ccccc1CNc1ncnc2c1ncn2[C@@H]1O[C@H](CO)[C@@H](O)[C@H]1O` [O-NITRO-N6-BENZYLADENOSINE]: the pIC50 was 4.82.
In the case of `CC(=O)Oc1ccc(CSc2ncnc3c2ncn3[C@@H]2O[C@H](CO)[C@@H](O)[C@H]2O)cc1` [P-ACETOXY-6-BENZYLTHIOINOSINE], the pKi was 4.02 and the pIC50 is 4.82.
`N#Cc1ccc(CNc2ncnc3c2ncn3[C@@H]2O[C@H](CO)[C@@H](O)[C@H]2O)cc1` [P-CYANO-N6-BENZYLADENOSINE]: the pIC50 was 5.08.
For `CC(C)c1ccc(CNc2ncnc3c2ncn3[C@@H]2O[C@H](CO)[C@@H](O)[C@H]2O)cc1` [P-ISOPROPYL-N6-BENZYLADENOSINE], the pIC50 is 4.66.
`C=Cc1ccc(CNc2ncnc3c2ncn3[C@@H]2O[C@H](CO)[C@@H](O)[C@H]2O)cc1` [P-VINYL-N6-BENZYLADENOSINE]: the pIC50 was 4.58.
